This assay addresses human A2A receptor (A2AR) (Homo sapiens, UniProt P29274). Kind of assay: Luciferase reporter assay (HEK293-A2AR-luc2p/CRE/Hygro cells, 3 nM CGS21680). Conditions: 3 nM CGS21680, 5 h incubation. Type of assay: cell-based. The essentials:
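HEK293 cells stably expressing A2AR with a CRE-luc2P reporter were seeded in 1% FBS with 1 U/mL adenosine deaminase. After 18 h, cells got 3 nM CGS21680 plus antagonist at 0.1–10000 nM for 5 h, followed by a luciferase readout. IC50 is relative to the 3 nM CGS21680 signal, set as 100%.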

Chain of human A2A receptor (A2AR) (P29274 whole entry): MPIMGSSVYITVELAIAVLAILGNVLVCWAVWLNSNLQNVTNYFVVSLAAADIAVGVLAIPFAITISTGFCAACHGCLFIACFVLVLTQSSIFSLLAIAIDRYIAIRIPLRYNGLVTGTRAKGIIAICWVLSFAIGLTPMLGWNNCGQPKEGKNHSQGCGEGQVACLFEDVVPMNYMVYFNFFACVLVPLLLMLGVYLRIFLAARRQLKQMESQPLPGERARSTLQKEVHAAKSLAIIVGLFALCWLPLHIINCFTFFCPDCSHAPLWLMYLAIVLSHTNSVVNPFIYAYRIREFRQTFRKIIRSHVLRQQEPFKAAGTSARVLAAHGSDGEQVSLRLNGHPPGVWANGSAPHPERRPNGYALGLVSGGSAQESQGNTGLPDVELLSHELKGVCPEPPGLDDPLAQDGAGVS

For `Nc1nc2c(cnn2C(C(=O)N2CCCc3ccccc32)c2ccccc2)c2nc(-c3ccco3)nn12` (stereo not shown) [Compound B4, 2-(5-amino-2-(furan-2-yl)-7H-pyrazolo[4,3-e][1,2,4]triazolo[1,5-c]pyrimidin-7-yl)-1-(3,4-dihydroquinolin-1(2H)-yl)-2-phenylethan-1-one], the IC50 was 2.9 nM. This lies in the single-digit nanomolar range. In turn, `CCCCC(C(=O)N1CCN(c2ccc(OCCN(C)C)cc2)CC1)n1ncc2c1nc(N)n1nc(-c3ccco3)nc21` (stereo not shown) [Compound A32, 2-(5-amino-2-(furan-2-yl)-7H-pyrazolo[4,3-e][1,2,4]triazolo[1,5-c]pyrimidin-7-yl)-1-(4-(4-(2-(dimethylamino)ethoxy)phenyl)piperazin-1-yl)hexan-1-one] had an IC50 of 7.2 nM. As for `CC(C(=O)N1CCN(c2ccccc2F)CC1)(c1ccccc1)n1ncc2c1nc(N)n1nc(-c3ccco3)nc21` (stereo not shown) [Compound A69, 2-(5-amino-2-(furan-2-yl)-7H-pyrazolo[4,3-e][1,2,4]triazolo[1,5-c]pyrimidin-7-yl)-1-(4-(2-fluorophenyl)piperazin-1-yl)-2-phenylpropan-1-one], the IC50 amounted to 3.4 nM. Next, `COCCOc1ccc(N2CCN(C(=O)C(C)(c3ccccc3)n3cc4c(nc(N)n5nc(-c6ccco6)nc45)n3)CC2)cc1` (stereo not shown) [Compound C25, 2-(5-amino-2-(furan-2-yl)-8H-pyrazolo[4,3-e][1,2,4]triazolo[1,5-c]pyrimidin-8-yl)-1-(4-(4-(2-methoxyethoxy)phenyl)piperazin-1-yl)-2-phenylpropan-1-one]: 21.7 nM; `CCC(C(=O)N1CCN(c2ccc(OCCOC)cc2)CC1)(c1ccccc1)n1ncc2c1nc(N)n1nc(-c3ccco3)nc21` (stereo not shown) [Compound A84, 2-(5-amino-2-(furan-2-yl)-7H-pyrazolo[4,3-e][1,2,4]triazolo[1,5-c]pyrimidin-7-yl)-1-(4-(4-(2-methoxyethoxy)phenyl)piperazin-1-yl)-2-phenylbutan-1-one]: 28.3 nM. `CC(C(=O)N1CCN(c2cccc(C(=O)N3CCCCC3)c2)CC1)(c1ccccc1)n1ncc2c1nc(N)n1nc(-c3ccco3)nc21` (stereo not shown) [Compound A89, 2-(5-amino-2-(furan-2-yl)-7H-pyrazolo[4,3-e][1,2,4]triazolo[1,5-c]pyrimidin-7-yl)-2-phenyl-1-(4-(3-(piperidine-1-carbonyl)phenyl)piperazin-1-yl)propan-1-one] showed an IC50 of 13.8 nM. This IC50 is about 2.1-fold lower than that of the compound before. For `COCCOc1ccc(N2CCN(C(=O)C(c3ccccc3C(F)(F)F)n3ncc4c3nc(N)n3nc(-c5ccco5)nc43)CC2)cc1` (stereo not shown) [Compound A38, 2-(5-amino-2-(furan-2-yl)-7H-pyrazolo[4,3-e][1,2,4]triazolo[1,5-c]pyrimidin-7-yl)-1-(4-(4-(2-methoxyethoxy)phenyl)piperazin-1-yl)-2-(2-(trifluoromethyl)phenyl)ethan-1-one] the value was 0.6 nM; for `CN1CCN(CCCOc2ccc(N3CCN(C(=O)C(C)(c4ccccc4)n4ncc5c4nc(N)n4nc(-c6ccco6)nc54)CC3)cc2)CC1` (stereo not shown) [Compound A82, 2-(5-amino-2-(furan-2-yl)-7H-pyrazolo[4,3-e][1,2,4]triazolo[1,5-c]pyrimidin-7-yl)-1-(4-(4-(3-(4-methylpiperazin-1-yl)propoxy)phenyl)piperazin-1-yl)-2-phenylpropan-1-one], 7.1 nM; for `CCCC(C(=O)N1CCN(c2ccc(OCCOC)cc2)CC1)n1ncc2c1nc(N)n1nc(-c3ccco3)nc21` (stereo not shown) [Compound A5, 2-(5-amino-2-(furan-2-yl)-7H-pyrazolo[4,3-e][1,2,4]triazolo[1,5-c]pyrimidin-7-yl)-1-(4-(4-(2-methoxyethoxy)phenyl)piperazin-1-yl)pentan-1-one], 9.1 nM. For `COCCOc1ccc(N2CCN(C(=O)C(COC)n3ncc4c3nc(N)n3nc(-c5ccco5)nc43)CC2)cc1` (stereo not shown) [Compound A26, 2-(5-amino-2-(furan-2-yl)-7H-pyrazolo[4,3-e][1,2,4]triazolo[1,5-c]pyrimidin-7-yl)-3-methoxy-1-(4-(4-(2-methoxyethoxy)phenyl)piperazin-1-yl)propan-1-one] the value was 43.8 nM; for `C[C@@](C(=O)N1CCN(c2ccc(OCCCN3CCOCC3)cc2)CC1)(c1ccccc1)n1ncc2c1nc(N)n1nc(-c3ccco3)nc21` [Compound A76a, (S)-2-(5-amino-2-(furan-2-yl)-7H-pyrazolo[4,3-e][1,2,4]triazolo[1,5-c]pyrimidin-7-yl)-1-(4-(4-(3-morpholinopropoxy)phenyl)piperazin-1-yl)-2-phenylpropan-1-one], 19.1 nM; for `CN1CCN(CCOc2ccc(N3CCN(C(=O)C(C)(c4ccccc4)n4ncc5c4nc(N)n4nc(-c6ccco6)nc54)CC3)cc2)CC1` (stereo not shown) [Compound A81, 2-(5-amino-2-(furan-2-yl)-7H-pyrazolo[4,3-e][1,2,4]triazolo[1,5-c]pyrimidin-7-yl)-1-(4-(4-(2-(4-methylpiperazin-1-yl)ethoxy)phenyl)piperazin-1-yl)-2-phenylpropan-1-one], 4.7 nM. Regarding `COc1ccccc1N1CCN(C(=O)C(C)(c2ccccc2)n2ncc3c2nc(N)n2nc(-c4ccco4)nc32)CC1` (stereo not shown) [Compound A78, 2-(5-amino-2-(furan-2-yl)-7H-pyrazolo[4,3-e][1,2,4]triazolo[1,5-c]pyrimidin-7-yl)-1-(4-(2-methoxyphenyl)piperazin-1-yl)-2-phenylpropan-1-one], inhibition was half-maximal at 6.2 nM (IC50). Next, `CCCC(C(=O)N1CCN(c2ccc(OCCOC)cc2)CC1)n1cc2c(nc(N)n3nc(-c4ccco4)nc23)n1` (single isomer, unassigned) [Compound C5b]: 209 nM; `CCCC(C(=O)N1CCN(c2cc(F)c(OCCOC)cc2F)CC1)n1ncc2c1nc(N)n1nc(-c3ccco3)nc21` (stereo not shown) [Compound A54, 2-(5-amino-2-(furan-2-yl)-7H-pyrazolo[4,3-e][1,2,4]triazolo[1,5-c]pyrimidin-7-yl)-1-(4-(2,5-difluoro-4-(2-methoxyethoxy)phenyl)piperazin-1-yl)pentan-1-one]: 4.9 nM. For `CC(C(=O)N1CCN(c2ccc(OCCCN3CCCCC3)cc2)CC1)(c1ccccc1)n1ncc2c1nc(N)n1nc(-c3ccco3)nc21` (stereo not shown) [Compound A85, 2-(5-amino-2-(furan-2-yl)-7H-pyrazolo[4,3-e][1,2,4]triazolo[1,5-c]pyrimidin-7-yl)-2-phenyl-1-(4-(4-(3-(piperidin-1-yl)propoxy)phenyl)piperazin-1-yl)propan-1-one] the value was 11.6 nM.

As for `COCCOCCOc1ccc(N2CCN(C(=O)C(CC(C)C)n3ncc4c3nc(N)n3nc(-c5ccco5)nc43)CC2)cc1` (single isomer, unassigned) [Compound A17b], the IC50 came out at 160 nM. Consider `COCCOc1ccc(N2CCN(C(=O)C(c3ccccc3)n3ncc4c3nc(N)n3nc(-c5ccco5)nc43)C[C@@H]2C)cc1` (stereo partly drawn) [Compound A46, 2-(5-amino-2-(furan-2-yl)-7H-pyrazolo[4,3-e][1,2,4]triazolo[1,5-c]pyrimidin-7-yl)-1-((S)-4-(4-(2-methoxyethoxy)phenyl)-3-methylpiperazin-1-yl)-2-phenylethan-1-one], for which the midpoint of inhibition, the IC50, lay at 2.9 nM. Turning to `CC(C(=O)N1CCN(c2ccccc2C(=O)NC2CCCCC2)CC1)(c1ccccc1)n1ncc2c1nc(N)n1nc(-c3ccco3)nc21` (stereo not shown) [Compound A94, 2-(4-(2-(5-amino-2-(furan-2-yl)-7H-pyrazolo[4,3-e][1,2,4]triazolo[1,5-c]pyrimidin-7-yl)-2-phenylpropanoyl)piperazin-1-yl)-N-cyclohexylbenzamide], inhibition was half-maximal at 3.8 nM (IC50). This IC50 and that of the compound before are within 1.5-fold of each other.
